Where a name gives a salt, the structure may show the parent alone. Read-outs that look alike come from different tables or passages of the source.
Columns and labels:
[1] = system: degradation of plasma clots; assay: Plasma clot lysis assay; assay type: biochemical, human
Description: To determine the inhibitory effect of the compounds of the invention on the degradation of plasma clots.
3.1 Collect fresh healthy human blood, mix 1 part of anticoagulant (0.109 M trisodium citrate) with 9 parts of blood, centrifuge at 2000×g for 20 min at room temperature, collect the supernatant (plasma), sub-package and store at −80° C. for later use.
3.2 On the day of experiment, the plasma was thawed in a water bath at 37° C., and all reagents except tPA were pre-warmed at 37° C.
3.3 Add 12.5 μL of 80 mM CaCl2 (HEPES buffer, pH 7.4) to a 96-well plate, and then add 25 μL of different concentrations of test compound diluted with normal saline, add an equal volume of normal saline to the negative control well.
3.4 Mix 50 μL of pre-warmed plasma with 12.5 μL of 4 nM tPA (HEPES buffer, pH 7.4), immediately add to a 96-well plate, measure the absorbance at 405 nm every 2 minutes, continuously for 15 hours.
The time corresponding to the median of the absorption value in the descending section—the time corresponding to the median of the absorption value in the ascending section is the plasma clot degradation time (Clot lysis time). Taking the plasma clot lysis time of the negative control well as a reference, calculate the relative value of the plasma clot lysis time in the wells treated with different concentrations of the compound and the plasma clot lysis time of the negative control well to obtain the inhibition rate:
Inhibition rate%=(1−Clot lysis time of negative control well/Clot lysis time of compound treated well)×100%
Taking the log value of the compound concentration as the X-axis, and the percentage inhibition rate as the Y-axis, and dose-response curves were fitted with the software GraphPad Prism 5 by using log (inhibitor) vs. Response-Variable slope to derive IC50 values of compounds inhibiting the degradation of plasma clots.
Formula: Y=min+(max−min)/(1+10^((LogIC50−X)×Hillslope).

[2] = Monkey PK experiment (plasma concentration by LC-MS/MS); assay type: in vivo; settings: male cynomolgus monkey, 1 mg/kg intravenous injection, single dose, fasted
Description: Male Cynomolgus monkey, normal grade, 3 monkeys each group (N=3)
The compound is weighed and dissolved in normal saline to prepare a 0.5 mg/mL clear solution for intravenous administration.
On the day of the experiment, the animals were administered according to the scheme in the table below. At each time point after administration, approximately 1 mL of blood was collected from the forearm vein and placed in heparin sodium anticoagulation tubes. Blood samples were placed on ice after collection, and the plasma was separated by centrifugation within 1 hour (centrifugation conditions: 2200 g, 10 minutes, 2-8° C.). The plasma samples were stored in a refrigerator at −80° C. until analysis.
The compound concentration in cynomolgus monkey plasma was determined by the following method: • Instruments and equipment: LC-MS/MS-19 (TQ5500, AB SCIEX, USA). • Internal standard: warfarin. • Chromatographic column: ACQUITY UPLC BEH C18, model 1.7 um 2.1*50 mm, purchased from Shenzhen Novah Chemical Technology Co., Ltd.; • Flow rate: 0.60 ml/min. • Column temperature: 40° C. • Mobile phase A: 0.1% formic acid in water. • Mobile phase B: 0.1% formic acid in acetonitrile.
Take 30 μL of the plasma sample prepared from item “2” , add 300 μL MeOH containing 100 ng/mL of internal standard to precipitate protein. The mixture was vortexed for 1 minute and centrifuged at 18000 g for 7 minutes. The supernatant was transferred to a 96-well plate. Inject 4 μL of supernatant into LC-MS/MS for analysis.
Pharmacokinetic parameters were calculated by using Phoenix WinNonlin7.0 software according to blood concentration data of different time points.

[3] = system: fibrinolysis; settings: cited from earlier work
[4] = human plasma, tPA, inhibition of plasma clot degradation in vitro relative to tranexamic acid

SMILES | IC50 ratio (IC50 Examples/IC50 Tranexamic acid) [1, 4] | also measured
Cl.O=C(O)c1ccc2c(n1)C(O)CNC2 (stereo not shown) [Example 2, 8-hydroxy-5,6,7,8-tetrahydro-1,6-naphthyridine-2-carboxylic acid hydrochloride] | 1.24 | –
Cl.O=C(O)c1ccc2c(n1)C(N1CC[S+]([O-])CC1)CNC2 (stereo not shown) [Example 21] | 0.14 | –
Cl.O=C(O)c1ccc2c(n1)CC(COCCO)NC2 (stereo not shown) [Example 32] | 0.61 | –
CC(C)CCC1Cc2nc(C(=O)O)ccc2CN1.Cl (stereo not shown) [Example 38] | 0.13 | –
CC(C)(O)C1Cc2nc(C(=O)O)ccc2CN1.Cl (stereo not shown) [Example 24] | 1.67 | –
CC(C)C1Cc2nc(C(=O)O)ccc2CN1.Cl (stereo not shown) [Example 37] | 0.18 | –
CC(C)CC1(CC(C)C)Cc2nc(C(=O)O)ccc2CN1.Cl [Example 48] | 0.42 | –
Cl.O=C(O)c1ccc2c(n1)CC(C(O)CCCO)NC2 (stereo not shown) [Example 13, 7-(1,4-dihydroxybutyl)-5,6,7,8-tetrahydro-1,6-naphthyridine-2-carboxylic acid hydrochloride] | – | IC50 ratio (IC50 Examples/IC50 Tranexamic acid) [1]: 1.63
Cl.O=C(O)c1ccc2c(n1)CC(CO)NC2 (stereo not shown) [Example 23] | 0.17 | –
Cl.O=C(O)c1ccc2c(n1)CC(C(=O)NCCO)NC2 (stereo not shown) [Example 29] | 2.26 | –
Cl.O=C(O)c1ccc2c(n1)CC1(CCCC1)NC2 [Example 46] | 0.33 | –
Cl.O=C(O)c1ccc2c(n1)CC1(CCOCC1)NC2 [Example 44] | 0.23 | –
CC(C)CC1Cc2nc(C(=O)O)ccc2CN1.Cl (stereo not shown) [Example 26] | 0.22 | –
Cl.O=C(O)c1ccc2c(n1)CC(C(=O)O)NC2 (stereo not shown) [Example 16, 5,6,7,8-tetrahydro-1,6-naphthyridine-2,7-dicarboxylic acid hydrochloride] | 0.54 | –
CC(C)(C)CCC1Cc2nc(C(=O)O)ccc2CN1.Cl (stereo not shown) [Example 40] | 0.18 | –
Cl.O=C(O)c1ccc2c(n1)CC(C(O)c1ccccc1)NC2 (stereo not shown) [Example 12, 7-(hydroxy(phenyl)methyl)-5,6,7,8-tetrahydro-1,6-naphthyridine-2-carboxylic acid hydrochloride] | 0.88 | –
Cl.O=C(O)c1nc2c(cc1F)CNCC2 [Example 17, 3-fluoro-5,6,7,8-tetrahydro-1,6-naphthyridine-2-carboxylic acid hydrochloride] | 0.34 | –
CC(C)C(O)C1Cc2nc(C(=O)O)ccc2CN1.Cl (stereo not shown) [Example 33] | 0.53 | –
O=C(O)c1ccc2c(n1)CC(CNCCCO)NC2 (stereo not shown) [Example 11, 7-(((3-hydroxypropyl)amino)methyl)-5,6,7,8-tetrahydro-1,6-naphthyridine-2-carboxylic acid dihydrochloride] | 2.58 | –
Cl.O=C(O)c1ccc2c(n1)C(N1CCOCC1)CNC2 (stereo not shown) [Example 5, 8-morpholino-5,6,7,8-tetrahydro-1,6-naphthyridine-2-carboxylic acid hydrochloride] | 0.29 | –
Cl.O=C(O)c1ccc2c(n1)CC(C1(O)CC1)NC2 (stereo not shown) [Example 9, 7-(1-hydroxycyclopropyl)-5,6,7,8-tetrahydro-1,6-naphthyridine-2-carboxylic acid hydrochloride] | 0.44 | –
CC(C)(C)CC1Cc2nc(C(=O)O)ccc2CN1.Cl (stereo not shown) [Example 36] | 0.13 | –
Cl.O=C(O)c1ccc2c(n1)CC1(CCC1)NC2 [Example 49] | 0.28 | –
CCCC1Cc2nc(C(=O)O)ccc2CN1.Cl (stereo not shown) [Example 39] | 0.17 | –

SMILES | IC50 ratio (IC50 Examples/IC50 Tranexamic acid) [1, 4] | also measured
Cl.O=C(O)c1ccc2c(n1)C(N1CCNCC1)CNC2 (stereo not shown) [Example 22] | 0.67 | –
Cl.O=C(O)c1ccc2c(n1)CC(CC1CCCCC1)NC2 (stereo not shown) [Example 41] | 0.12 | –
CCC1(CC)Cc2nc(C(=O)O)ccc2CN1.Cl [Example 45, 7,7-diethyl-5,6,7,8-tetrahydro-1,6-naphthyridine-2-carboxylic acid hydrochloride] | 0.57 | –
Cl.O=C(O)c1ccc2c(n1)CC(C(=O)OCCCO)NC2 (stereo not shown) [Example 30] | 0.32 | –
Cl.O=C(O)c1ccc2c(n1)CC(Cc1ccccc1)NC2 (stereo not shown) [Example 27] | 0.67 | –
Cl.O=C(O)c1ccc2c(n1)CC(CCCCCO)NC2 (stereo not shown) [Example 28] | 0.27 | –
Cl.O=C(O)c1ccc2c(n1)CCNC2 [Example 1, 5,6,7,8-tetrahydro-1,6-naphthyridine-2-carboxylic acid hydrochloride] | – | AUC [2]: 4110 ng·h/mL; Cmax [2]: 10600 ng/mL; clearance [2]: 4 mL/min/kg
Cl.O=C(O)c1ccc2c(n1)CC(CO)(CO)NC2 [Example 25] | 6.36 | –
Cl.O=C(O)c1ccc2c(n1)C(N1CCS(=O)(=O)CC1)CNC2 (stereo not shown) [Example 6, 8-(1,1-dioxido-thiomorpholino)-5,6,7,8-tetrahydro-1,6-naphthyridine-2-carboxylic acid hydrochloride] | 0.31 | –
Cl.O=C(O)c1ccc2c(n1)C(N1CCOC(Cc3ccccc3)C1)CNC2 (stereo not shown) [Example 15, 8-(2-benzylmorpholino)-5,6,7,8-tetrahydro-1,6-naphthyridine-2-carboxylic acid hydrochloride] | 0.57 | –
Cl.O=C(O)c1ccc2c(n1)CC(COCCCO)NC2 (stereo not shown) [Example 7, 7-((3-hydroxypropoxy)methyl)-5,6,7,8-tetrahydro-1,6-naphthyridine-2-carboxylic acid hydrochloride] | 0.25 | –
Cl.O=C(O)c1ccc2c(n1)CC1(CCCCC1)NC2 [Example 47] | 0.40 | –
Cl.O=C(O)c1ccc2c(n1)CC(CCCc1ccccc1)NC2 (stereo not shown) [Example 34] | 0.11 | –
Cl.O=C(O)c1ccc2c(n1)CC(CCCCO)NC2 (stereo not shown) [Example 10, 7-(4-hydroxybutyl)-5,6,7,8-tetrahydro-1,6-naphthyridine-2-carboxylic acid hydrochloride] | 0.18 | –
NC1CNCc2ccc(C(=O)O)nc21 (stereo not shown) [Example 3, 8-amino-5,6,7,8-tetrahydro-1,6-naphthyridine-2-carboxylic acid dihydrochloride] | 2.89 | –
COc1ccc(CCC2Cc3nc(C(=O)O)ccc3CN2)cc1.Cl (stereo not shown) [Example 42] | 0.17 | –
Cl.O=C(O)c1ccc2c(n1)CC(CCC1CCCCC1)NC2 (stereo not shown) [Example 43] | 0.11 | –
NC[C@H]1CC[C@H](C(=O)O)CC1 [tranexamic acid, trans-4-aminomethyl-cyclohexane-carboxylic acid] | – | anti-fibrinolytic activity relative to EACA [3]: about 10 times
Cl.O=C(O)c1ccc2c(n1)C(N1CCSCC1)CNC2 (stereo not shown) [Example 20] | 0.50 | –
Cl.O=C(O)c1ccc2c(n1)C(N1CCCCC1)CNC2 (stereo not shown) [Example 19] | 5.75 | –
O=C(O)c1ccc2c(n1)CC(CNCCO)NC2 (stereo not shown) [Example 31] | 1.87 | –
Cl.O=C(O)c1ccc2c(n1)CC(CCc1ccccc1)NC2 (stereo not shown) [Example 35] | 0.12 | –
Cl.O=C(O)c1ccc2c(n1)C(OCCO)CNC2 (stereo not shown) [Example 18] | 0.66 | –

Source: US20240124443A1, “PLASMIN INHIBITOR, PREPARATION METHOD THEREFOR, AND APPLICATION THEREOF” (SCINNOHUB PHARMACEUTICAL CO., LTD, priority 2021, published 2024)
